Structures can show the parent of a compound that is named as a salt.

Holding throughout (design): species or system Male Wistar rats
In one assay the target is T1, DOPAMINE D2 Receptor (Rattus norvegicus, UniProt P61169).
T1 construct: Male Wistar rats, 150-200 g are decapitated, striatum is removed quickly and weighed; from tissue; host or cells: rat striatum membrane fragments
As to the kind of experiment: TEST 1: In Vitro Inhibition of DOPAMINE D2 Receptor Binding (3H-Spiroperidol, rat striatum). Particulars: 3H-Spiroperidol (0.05 nM), rat striatum membranes, 20 min. at 37° C.; read-out: TEST 1 IC50 (concentration inhibiting specific binding by 50%). The method, then:
TEST 1: In Vitro Inhibition of DOPAMINE D2 Receptor Binding
Radioactive-labelled ligand ^3 H-Spiroperidol is incubated with isolated cell-membrane fragments at 37° C. for a given period of time. Following completed incubation, the incubate is filtered through GF/B filters which are rinsed following filtration to remove unspecifically adhered radioactivity. As opposed to low-molecular compounds, membrane fragments are not rinsed through the filters, the radioactivity bound to the filters is indicative of the amount of ligand bound specifically as well as nonspecifically to the membranes.
The procedure is performed in ice bath. Polytron kinematica is rinsed with milli-Q--H2 O before and after use. Male Wistar rats, 150-200 g are decapitated, striatum is removed quickly and weighed (approx. 50 mg). Striatum is transferred to a centrifuging vial containing 10 ml ice-cold D2 buffer. Homogenization is performed applying polytron kinematica (homogenizer) setting 6 for 20 sec. The homogenizer is rinsed with 10 ml D2 buffer in another centrifuging vial. The 10 ml rinsing buffer is added to the tissue vial. Centrifugation at 18,000 rpm for 10 min. at 4° C. Final pellet is transferred to 1,000×vol. of same buffer. (Ex. 50 mg striatum in 50 ml D2 buffer). Can be stored at 0° C. for at least 4 hours. Note that the tissue must be monogeneous (uniform) before use. If not, brief homogenization is performed. […]

Another assay concerns the target T2, DOPAMINE D1 Receptor (Rattus norvegicus, UniProt P18901).
T2 construct: Male Wistar rats, 150-200 g are decapitated; Striatum is removed quickly; from tissue; host or cells: rat striatum membrane fragments
As to the kind of experiment: TEST 2: In Vitro Inhibition of DOPAMINE D1 Receptor Binding (3H-SCH 23390, rat striatum). The conditions noted are these: 3H-SCH 23390 (0.2 nM), rat striatum membranes, 60 min. at 30° C.; read-out: TEST 2 IC50 (concentration inhibiting specific binding by 50%). How it is done:
TEST 2: In Vitro Inhibition of DOPAMINE D1 Receptor Binding
Radioactive-labelled ligand ^3 H-SCH 23390 is incubated with isolated cell-membrane fragments in incubation buffer at 30° C. for a given period of time. Following completed incubation, the incubate is filtered through GF/B filters, which are rinsed following filtration to remove unspecifically adhered radioactivity. As opposed to low-molecular compounds, membrane fragments are not rinsed through the filters, the radioactivity bound to the filters indicates the amount of ligand bound specifically as well as nonspecifically to the membranes.
Male Wistar rats, 150-200 g are decapitated. Striatum is removed quickly, weighed (approx. 50 mg) and carefully homogenized in 100×vol. of buffer I applying glass/teflon homogenizer 10 up/down strokes. Ex.: 50 mg striatum is homogenized in […] buffer I. The homogenate is centrifuged at 18,000 rpm for 20 min. at 4° C., and the supernate is decanted. This step is performed three times, and each time the pellet is resuspended and homogenized in 100×vol. of buffer I. Following the third centrifugation, the pellet is suspended in 100×vol. of resuspension buffer and homogenized. The tissue is now ready for use. The tissue is stable at 0° C. for 8 hours.
200 μl test substance/H2 O/blind (cis-flupentixol 2 μM)
Incubation for 60 min. at 30° C.
10 ml of ice-cold 0.9% NaCl is added to the tubes. […]

Another assay addresses T3, 5HT2-Receptor (Rattus norvegicus, UniProt P14842).
T3 construct: Male Wistar rats, 150-200 g are decapitated; Frontal cortex is removed quickly; from tissue; host or cells: rat frontal cortex membrane fragments
Nature of the assay: TEST 3: In Vitro Inhibition of 5HT2-Receptor Binding (3H-Ketanserine, rat frontal cortex). The conditions noted are these: 3H-Ketanserine (0.4 nM), rat frontal cortex membranes, 15 min. at 37° C.; read-out: TEST 3 IC50 (concentration inhibiting specific binding by 50%). The method, then: TEST 3: In Vitro Inhibition of 5HT2 -Receptor Binding
Radioactive-labelled ligand ^3 H-Ketanserine is incubated with isolated cell membrane fragments at 37° C. for a given period of time. Following completed incubation, the incubate is filtered through GF/B filters, which are rinsed following filtration to remove unspecifically adhered radioactivity. As opposed to low-molecular compounds, membrane fragments are not rinsed through the filters, the radioactivity bound to the filters indicates the amount of ligand bound specifically as well as nonspecifically to the membranes.
The preparation is made in ice bath. Polytron kinematica is rinsed with milli-Q--H2 O before and after use. Male Wistar rats, 150-200 g are decapitated. Frontal cortex is removed quickly and weighed (approx. 200 mg). Frontal cortex is added to centrifuging vial containing 10 ml ice-cold D2 buffer. Homogenization applying polytron kinematica (homogenizer) setting 6 for 20 sec. The homogenizer is rinsed with 10 ml D2 buffer in another centrifuging vial. The 10 ml rinsing buffer is added to the tissue vial. Centrifuged at 18,000 rpm for 10 min. at 4° C. Final pellet is transferred to 125×vol. of same buffer. (Ex 200 mg in 25 ml D2 buffer). Can be stored for approx. 30 min. at 0° C.
25/μl ^3 H-Ketanserine (0.4 nM)
25/μl test substance/H2 O/blind cyproheptadine (2/μM)
Incubation for 15 min. at 37° C. […]

T1 sequence (P61169 whole entry, the tested form may be a part): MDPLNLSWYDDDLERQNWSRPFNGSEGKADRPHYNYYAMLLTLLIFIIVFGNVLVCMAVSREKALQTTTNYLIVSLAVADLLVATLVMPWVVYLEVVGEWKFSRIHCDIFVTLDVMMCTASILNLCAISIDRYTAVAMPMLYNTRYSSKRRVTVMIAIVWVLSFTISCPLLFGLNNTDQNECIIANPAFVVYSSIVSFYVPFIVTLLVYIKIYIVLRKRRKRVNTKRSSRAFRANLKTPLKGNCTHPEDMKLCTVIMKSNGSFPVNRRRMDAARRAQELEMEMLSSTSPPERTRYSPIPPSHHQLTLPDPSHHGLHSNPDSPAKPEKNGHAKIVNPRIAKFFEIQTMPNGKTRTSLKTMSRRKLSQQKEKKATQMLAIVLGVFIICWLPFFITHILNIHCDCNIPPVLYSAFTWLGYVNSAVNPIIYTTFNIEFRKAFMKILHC
T3 sequence (P14842 whole entry, the tested form may be a part): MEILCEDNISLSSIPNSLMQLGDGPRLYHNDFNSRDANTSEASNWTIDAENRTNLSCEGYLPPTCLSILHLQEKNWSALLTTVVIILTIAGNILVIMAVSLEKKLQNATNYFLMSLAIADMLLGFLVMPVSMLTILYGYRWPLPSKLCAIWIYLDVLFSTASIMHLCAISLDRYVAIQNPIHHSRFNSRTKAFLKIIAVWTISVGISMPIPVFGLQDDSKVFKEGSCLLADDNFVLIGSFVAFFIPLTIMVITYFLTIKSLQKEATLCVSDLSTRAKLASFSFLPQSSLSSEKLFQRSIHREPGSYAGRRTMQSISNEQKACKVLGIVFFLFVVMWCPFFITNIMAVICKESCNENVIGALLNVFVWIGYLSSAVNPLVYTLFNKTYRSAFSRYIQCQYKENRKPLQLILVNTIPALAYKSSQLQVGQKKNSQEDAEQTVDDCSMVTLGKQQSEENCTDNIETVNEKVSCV
T2 sequence (P18901 whole entry, the tested form may be a part): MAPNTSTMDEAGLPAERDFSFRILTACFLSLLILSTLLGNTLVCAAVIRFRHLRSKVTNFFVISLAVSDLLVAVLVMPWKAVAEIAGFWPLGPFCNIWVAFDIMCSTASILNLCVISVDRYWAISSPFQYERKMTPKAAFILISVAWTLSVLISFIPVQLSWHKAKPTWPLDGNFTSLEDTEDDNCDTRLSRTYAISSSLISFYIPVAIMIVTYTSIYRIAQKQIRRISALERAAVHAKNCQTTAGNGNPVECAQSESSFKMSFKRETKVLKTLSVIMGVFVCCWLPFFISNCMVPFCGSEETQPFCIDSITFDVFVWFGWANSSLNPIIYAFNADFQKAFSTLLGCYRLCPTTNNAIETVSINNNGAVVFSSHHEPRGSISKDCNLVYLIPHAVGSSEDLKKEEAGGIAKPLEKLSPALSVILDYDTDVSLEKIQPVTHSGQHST

As to `CN(C(=O)OCCCN1CCC(c2noc3cc(F)ccc23)CC1)c1ccccc1` [Example 3, 4-(6-Fluoro-1,2-benzisoxazol-3-yl) -1-(3-(N-methyl-N-phenylcarbamoyloxy)propyl)piperidine, oxalate], the figures for the IC50 at DOPAMINE D2 Receptor, at DOPAMINE D1 Receptor and at 5HT2-Receptor were 8.9 nM, 43 nM and 6.9 nM, respectively.

As to `CCN(C(=O)OCCCN1CCC(c2noc3cc(F)ccc23)CC1)c1ccc2c(c1)OCO2` [Example 2, 4-(6-Fluoro-1,2-benzisoxazol-3-yl)-1-(3-(N-ethyl-N-(3,4-methylenedioxyphenyl)carbamoyloxy)propylpiperidine, oxalate], the IC50 was found to be 18 nM at DOPAMINE D2 Receptor, 30 nM at DOPAMINE D1 Receptor and 6.7 nM on 5HT2-Receptor.

The values are drawn from patent publication US5478845A, “Piperidine derivatives” (Novo Nordisk A/S, priority 1993, dated 1995).
